Experimental data: ChEMBL document CHEMBL5705888, “Substrate specificity and inhibitors of LRRK2, a protein kinase mutated in Parkinson's disease” (Biochem J, 2009)

Columns and labels:
[1] = target: T1, Serine/threonine-protein kinase BRSK2 (Homo sapiens) (UniProt Q8IWQ3); assay: Inhibition of BRSK2 (unknown origin) at 1 uM incubated for 30 mins in presence of [gamma-33P]ATP by multidrop micro reagent based assay relative to control; values are per cent of control
T1 sequence (whole entry): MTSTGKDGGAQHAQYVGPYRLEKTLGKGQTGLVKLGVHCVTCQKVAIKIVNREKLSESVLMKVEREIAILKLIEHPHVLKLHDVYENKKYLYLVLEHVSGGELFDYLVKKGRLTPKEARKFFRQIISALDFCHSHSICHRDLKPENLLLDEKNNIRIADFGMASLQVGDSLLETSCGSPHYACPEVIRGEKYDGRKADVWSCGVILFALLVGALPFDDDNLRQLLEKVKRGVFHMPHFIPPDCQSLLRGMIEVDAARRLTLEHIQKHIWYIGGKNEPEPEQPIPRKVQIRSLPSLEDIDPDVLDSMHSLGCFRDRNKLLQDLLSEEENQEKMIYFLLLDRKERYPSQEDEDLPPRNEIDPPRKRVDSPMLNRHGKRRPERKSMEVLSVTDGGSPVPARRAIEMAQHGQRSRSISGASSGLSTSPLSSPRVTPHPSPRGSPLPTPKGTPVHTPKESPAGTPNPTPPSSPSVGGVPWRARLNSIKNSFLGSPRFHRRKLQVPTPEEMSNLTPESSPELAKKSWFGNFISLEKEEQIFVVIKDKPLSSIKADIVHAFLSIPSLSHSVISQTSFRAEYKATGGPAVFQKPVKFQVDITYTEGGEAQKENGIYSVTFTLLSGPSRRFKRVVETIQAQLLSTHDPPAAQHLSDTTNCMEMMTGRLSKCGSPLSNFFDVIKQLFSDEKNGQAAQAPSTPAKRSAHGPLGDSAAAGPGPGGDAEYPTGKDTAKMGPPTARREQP

[2] = target: Mitogen-activated protein kinase 1 (Homo sapiens) (UniProt P28482); assay: Inhibition of ERK2 (unknown origin) at 1 uM incubated for 30 mins in presence of [gamma-33P]ATP by multidrop micro reagent based assay relative to control; values are per cent of control
Chain of Mitogen-activated protein kinase 1 (Homo sapiens) (P28482 whole entry): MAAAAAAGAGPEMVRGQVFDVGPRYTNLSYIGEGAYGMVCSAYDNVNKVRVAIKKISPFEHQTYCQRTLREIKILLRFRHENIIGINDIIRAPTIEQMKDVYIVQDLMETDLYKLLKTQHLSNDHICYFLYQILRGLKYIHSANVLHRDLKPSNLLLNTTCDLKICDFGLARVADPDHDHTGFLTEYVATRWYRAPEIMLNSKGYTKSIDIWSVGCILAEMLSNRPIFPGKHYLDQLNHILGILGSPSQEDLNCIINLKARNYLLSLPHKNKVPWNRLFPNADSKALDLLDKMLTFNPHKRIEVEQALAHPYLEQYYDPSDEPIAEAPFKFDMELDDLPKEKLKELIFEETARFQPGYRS

[3] = target: Serine/threonine-protein kinase pim-1 (Homo sapiens) (UniProt P11309); assay: Inhibition of PIM1 (unknown origin) at 1 uM incubated for 30 mins in presence of [gamma-33P]ATP by multidrop micro reagent based assay relative to control; values are per cent of control
Chain of Serine/threonine-protein kinase pim-1 (Homo sapiens) (P11309 whole entry, looked up): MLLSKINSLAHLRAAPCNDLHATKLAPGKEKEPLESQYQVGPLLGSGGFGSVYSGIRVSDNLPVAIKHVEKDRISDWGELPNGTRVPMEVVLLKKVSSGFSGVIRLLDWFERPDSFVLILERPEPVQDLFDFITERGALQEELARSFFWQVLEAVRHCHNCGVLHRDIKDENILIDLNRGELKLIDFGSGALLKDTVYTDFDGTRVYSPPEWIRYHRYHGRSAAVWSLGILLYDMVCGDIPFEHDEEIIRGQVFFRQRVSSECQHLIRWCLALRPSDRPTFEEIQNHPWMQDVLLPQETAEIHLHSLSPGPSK

[4] = target: Mitogen-activated protein kinase 11 (Homo sapiens) (UniProt Q15759); assay: Inhibition of p38beta MAPK (unknown origin) at 10 uM incubated for 30 mins in presence of [gamma-33P]ATP by multidrop micro reagent based assay relative to control; values are per cent of control
Chain of Mitogen-activated protein kinase 11 (Homo sapiens) (Q15759 whole entry): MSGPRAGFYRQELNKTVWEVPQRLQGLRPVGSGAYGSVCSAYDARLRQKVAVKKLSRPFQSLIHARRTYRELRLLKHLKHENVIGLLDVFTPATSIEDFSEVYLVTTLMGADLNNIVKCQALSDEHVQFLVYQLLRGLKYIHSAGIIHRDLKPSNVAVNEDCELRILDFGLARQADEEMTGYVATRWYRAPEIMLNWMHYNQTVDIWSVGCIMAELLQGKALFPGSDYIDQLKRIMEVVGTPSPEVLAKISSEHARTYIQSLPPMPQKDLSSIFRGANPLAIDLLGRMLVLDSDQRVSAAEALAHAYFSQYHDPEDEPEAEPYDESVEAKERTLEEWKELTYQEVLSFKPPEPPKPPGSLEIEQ

[5] = target: Serine/threonine-protein kinase Nek6 (Homo sapiens) (UniProt Q9HC98); assay: Residual activity of NEK6 (unknown origin) at 10 uM incubated for 30 mins in presence of [gamma-33P]ATP by multidrop micro reagent based assay relative to control
Chain of Serine/threonine-protein kinase Nek6 (Homo sapiens) (Q9HC98 whole entry): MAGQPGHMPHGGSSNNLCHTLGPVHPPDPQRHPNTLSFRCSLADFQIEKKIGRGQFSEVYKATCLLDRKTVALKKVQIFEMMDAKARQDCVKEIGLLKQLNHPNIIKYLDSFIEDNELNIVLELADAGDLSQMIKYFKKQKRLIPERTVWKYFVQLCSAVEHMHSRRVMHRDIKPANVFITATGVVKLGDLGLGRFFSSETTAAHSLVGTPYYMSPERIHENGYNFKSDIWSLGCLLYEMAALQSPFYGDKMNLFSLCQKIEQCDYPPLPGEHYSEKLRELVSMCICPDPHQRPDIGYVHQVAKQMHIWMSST

[6] = target: Tyrosine-protein kinase Yes (Homo sapiens) (UniProt P07947); assay: Inhibition of YES1 (unknown origin) at 10 uM incubated for 30 mins in presence of [gamma-33P]ATP by multidrop micro reagent based assay relative to control; values are per cent of control
Chain of Tyrosine-protein kinase Yes (Homo sapiens) (P07947 2-543 limits assumed): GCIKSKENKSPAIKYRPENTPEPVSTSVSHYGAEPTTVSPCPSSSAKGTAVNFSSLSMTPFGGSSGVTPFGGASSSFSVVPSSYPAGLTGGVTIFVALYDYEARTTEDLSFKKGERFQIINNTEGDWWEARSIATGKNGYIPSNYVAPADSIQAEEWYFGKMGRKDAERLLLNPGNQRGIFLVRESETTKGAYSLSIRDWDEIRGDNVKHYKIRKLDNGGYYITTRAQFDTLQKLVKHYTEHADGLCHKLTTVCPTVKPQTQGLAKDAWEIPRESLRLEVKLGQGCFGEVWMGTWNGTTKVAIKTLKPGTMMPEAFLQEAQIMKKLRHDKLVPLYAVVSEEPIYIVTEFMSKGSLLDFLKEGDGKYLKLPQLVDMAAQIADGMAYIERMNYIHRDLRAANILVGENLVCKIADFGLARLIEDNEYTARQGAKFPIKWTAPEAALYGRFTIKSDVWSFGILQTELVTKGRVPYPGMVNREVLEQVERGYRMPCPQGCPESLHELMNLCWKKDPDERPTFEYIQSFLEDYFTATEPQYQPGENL

[7] = target: AMP-activated protein kinase, AMPK (Homo sapiens) (UniProt P54646+O43741+P54619+Q9UGJ0+Q9Y478+Q13131+Q9UGI9); assay: Inhibition of AMPK (unknown origin) at 10 uM incubated for 30 mins in presence of [gamma-33P]ATP by multidrop micro reagent based assay relative to control; assay type: protein-complex assay
Homo sapiens = organism: Homo sapiens; assay: Inhibition of PHK (unknown origin) at 10 uM incubated for 30 mins in presence of [gamma-33P]ATP by multidrop micro reagent based assay relative to control; values are per cent of control
[8] = target: RAC-alpha serine/threonine-protein kinase (Homo sapiens) (UniProt P31749); assay: Inhibition of PKBalpha (unknown origin) at 10 uM incubated for 30 mins in presence of [gamma-33P]ATP by multidrop micro reagent based assay relative to control; values are per cent of control
Chain of RAC-alpha serine/threonine-protein kinase (Homo sapiens) (P31749 whole entry): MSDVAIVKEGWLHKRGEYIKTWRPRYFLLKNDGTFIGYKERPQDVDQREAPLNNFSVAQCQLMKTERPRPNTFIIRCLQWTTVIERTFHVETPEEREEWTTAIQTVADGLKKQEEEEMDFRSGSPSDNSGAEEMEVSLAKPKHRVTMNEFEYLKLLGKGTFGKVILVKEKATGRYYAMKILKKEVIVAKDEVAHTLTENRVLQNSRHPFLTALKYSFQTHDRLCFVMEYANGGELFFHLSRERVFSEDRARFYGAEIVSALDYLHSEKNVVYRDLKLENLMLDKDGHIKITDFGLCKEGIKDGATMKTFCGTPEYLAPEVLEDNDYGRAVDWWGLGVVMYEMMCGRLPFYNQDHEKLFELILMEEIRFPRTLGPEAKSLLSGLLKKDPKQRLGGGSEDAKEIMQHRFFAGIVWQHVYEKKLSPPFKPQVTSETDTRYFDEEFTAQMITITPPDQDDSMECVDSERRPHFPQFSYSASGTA

[9] = target: T2, Dual specificity tyrosine-phosphorylation-regulated kinase 2 (Homo sapiens) (UniProt Q92630); assay: Inhibition of DYRK2 (unknown origin) at 10 uM incubated for 30 mins in presence of [gamma-33P]ATP by multidrop micro reagent based assay relative to control; values are per cent of control
T2 sequence (whole entry): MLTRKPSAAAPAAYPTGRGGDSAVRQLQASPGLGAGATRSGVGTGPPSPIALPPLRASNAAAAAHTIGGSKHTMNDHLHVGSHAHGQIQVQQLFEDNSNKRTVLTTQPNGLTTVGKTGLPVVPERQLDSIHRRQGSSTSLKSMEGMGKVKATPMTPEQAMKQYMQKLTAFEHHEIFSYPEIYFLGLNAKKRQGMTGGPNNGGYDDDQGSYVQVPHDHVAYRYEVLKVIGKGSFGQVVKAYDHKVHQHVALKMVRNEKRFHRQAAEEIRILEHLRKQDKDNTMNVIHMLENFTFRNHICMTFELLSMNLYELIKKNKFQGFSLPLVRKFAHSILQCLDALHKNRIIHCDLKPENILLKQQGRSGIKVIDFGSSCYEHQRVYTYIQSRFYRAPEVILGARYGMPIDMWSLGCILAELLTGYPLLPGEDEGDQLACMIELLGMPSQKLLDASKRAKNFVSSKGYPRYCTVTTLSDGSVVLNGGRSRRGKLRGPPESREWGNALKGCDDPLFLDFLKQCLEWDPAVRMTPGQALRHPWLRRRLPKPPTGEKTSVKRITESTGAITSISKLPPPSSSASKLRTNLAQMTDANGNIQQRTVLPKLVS

Row | Structure (SMILES) | residual activity [1] | residual activity [2] | residual activity [3] | residual activity [4] | residual activity [5] | residual activity [6] | inhibition [7] | residual activity (Homo sapiens) | residual activity [8] | residual activity [9]
1 | CC1=C(C(=O)Nc2cc3cn[nH]c3cc2F)C(c2ccc(C(F)(F)F)cc2)CC(=O)N1 (stereo not given) | 91% | 94% | 89% | – | – | – | – | – | – | –
2 | Cc1cncc2cccc(S(=O)(=O)N3CCCNC[C@@H]3C)c12 | 17% | – | – | – | – | – | – | – | – | –
3 | CCn1c(-c2nonc2N)nc2cnc(Oc3cccc(NC(=O)c4ccc(OCCN5CCOCC5)cc4)c3)cc21 [GSK-269962A] | – | 105% | 31% | – | – | – | – | – | – | –
4 | C[C@@H](N)[C@H]1CC[C@H](C(=O)Nc2ccncc2)CC1 | – | – | – | 101% | 80% | 96% | 77% | 79% | 56% | 92%
5 | O=S(=O)(c1cccc2cnccc12)N1CCCNCC1 [FASUDIL] | – | – | – | 111% | 107% | 136% | 60% | 46% | 27% | 80%
